Laboratory results from patent publication US12338214B2, “Bexarotene derivatives and their use in treating cancer” (DJ THERAPEUTICS LLC, priority 2018, dated 2025).

Experiments:
MV4;11 cells = assay: Cell count activity in MV4;11 cells; assay type: cell-based, human; conditions: 5 days, FIG. 5
Procedure: (§1) NB4 cells or MV4;11 cells were grown in RPMI, 10% fetal bovine serum and plated at a density of 25,000 cells/mL in presence or absence of compound of the disclosure (dissolved in DMSO) for 5 days. Cells were counted manually on a light microscope using a hemocytometer and Trypan blue exclusion or on the Nexcelom Cellometer Auto 2000 using Cellometer Viastain AOPI staining solution (Nexcelom CS2-0106).

NB4 cells = assay: Cell count activity in NB4 cells; assay type: cell-based, human; conditions: 5 days, FIG. 4
Procedure: as §1

SMILES | reduction in cell counts (MV4;11 cells) | reduction in cell counts (NB4 cells)
CC1=C(/C=C/C(C)=C/C=C/C(C)=C/C(=O)O)C(C)(C)CCC1 [ATRA, all-trans retinoic acid] | dose dependent reduction in cell counts | 
C=C(c1ccc(C(=O)O)cc1)c1cc2c(cc1C)C(C)(C)CCC2(C)C [bexarotene] |  | dose dependent reduction in cell counts
